Assay: Dissolving time in water (rate of dissolution)
Format: physicochemical
Conditions: 10 g in 100 ml water at 20° C.; particle size 150 μm or more but less than 350 μm
Source text: Powder containing an eutectic crystalline sorbitol/maltitol prepared by the same way as that of Example 11 was classified into a part (crude particle part) having a particle size of 350 μm or more but less than 2 mm and a part (powdery product of 150 to 350 μm in particle size) having a particle size of 150 μm or more but less than 350 μm.
In addition, as a control, powdery sorbitol (SORBITOL FP, manufactured by NIKKEN FINE CHEMICALS CO., LTD.), powdery maltitol (AMARTY MR, manufactured by TOWA KASEI CO., LTD.), and a mixture of powdery sorbitol and powdery maltitol (1:1), which were classified so as to have a particle size of 150 μm or more but less than 350 μm (powdery product of 150 to 350 μm in particle size), were prepared.
Ten grams of each of them was poured into 100 ml of water at 20° C. and then subjected to the measurement of dissolving time. Consequently, the crude part of the powder containing an eutectic crystalline sorbitol/maltitol dissolved within 50 seconds, the powdery product of the powder containing an eutectic crystalline sorbitol/maltitol having a particle size of 150 to 350 μm dissolved within 18 seconds, the powdery sorbitol dissolved within 35 seconds, the powdery maltitol dissolved within 54 seconds, and the mixture of the powdery sorbitol and the powdery maltitol dissolved within 46 seconds.

| Structure (SMILES) | dissolving time [s] |
| --- | --- |
| OC[C@@H](O)[C@@H](O[C@H]1O[C@H](CO)[C@@H](O)[C@H](O)[C@H]1O)[C@H](O)[C@@H](O)CO [powdery maltitol, maltitol] | ≤ 54 |
| OC[C@@H](O)[C@@H](O)[C@H](O)[C@@H](O)CO [powdery sorbitol, sorbitol] | ≤ 35 |

Reference: patent US20110086924A1, “Method of manufacturing an eutectic crystalline sugar alcohol” (B Food Science Co., Ltd., priority 2005, published 2011)
